One series has as its target B-Raf-V600E kinase (Homo sapiens, UniProt P15056, V600E). The series can be described thus: B-Raf kinase activity (kinase cascade assay). The conditions noted are these: MEK1/Erk2/MBP, [γ-32P] ATP, read-out: B-Raf-V600E kinase inhibitory activity (IC50). It is filed as biochemical. Here is the method:
Measurement of B-Raf Kinase Activity (Kinase Cascade Assay)
(1) Activation of MAP Kinase 2/Erk2 by B-Raf
Magnesium/ATP solution (500 μM ATP, 75 mM magnesium chloride) was prepared (10 μL). Diluted B-Raf-V600E enzyme (2.5 μL) was added at a final concentration of 1 ng/mL. and inactivated MEK1 (1.6 μL) was added at a final concentration of 0.4 μg/mL. Then, inactivated MAP Kinase 2/Erk2 (4 μL) was added at a final concentration of 1.0 μg/mL. The test compound was prepared at a concentration of 10 mM in dimethylsulfoxide (DMSO) and diluted to various concentrations (DMSO 2.6%). The final volume was adjusted to 38 μL by adding Assay Dilution Butter I (ADBI) and the mixture was allowed to react at 30° C. for 30 minutes. 5 μL of the mixture solution was taken to perform the next process.
(2) Phosphorylation of Myelin Basic Protein (MBP)
The mixture solution (5 μL) was treated with assay dilution buffer (10 μL) and then with myelin basic protein (MBP, 2 mg/mL, 10 μL). [γ-32P] ATP (100 μCi/container) diluted to 1/10 was added in 10 μL aliquots. After reaction at 30° C. for […] and then placing P81 paper in a scintillation vial, spotting was performed slowly using 25 μL of the reaction mixture. After washing 4 times with 0.75% phosphoric acid for 10 minutes and washing once with acetone for 5 minutes, 5 mL of scintillation cocktail was added to the scintillation vial. Signals were recorded using a scintillation counter.

The subject of another series is A375P cells. Description: Inhibitory activity against proliferation of A375P melanoma cells (MTT assay). The series is classed as cell-based. The conditions noted are these: A375P human melanoma cells with B-Raf-V600E. The method, then:
Measurement of Inhibitory Activity Against Proliferation of A375P Melanoma Cells
A375P cells purchased from ATCC were cultured in DMEM [10% FBS, 1% penicillin/streptomycin] at 37° C. in the presence of 5% CO2. The cultured A375P cells were harvested with 0.05% trypsin-0.02% EDTA and seeded in a 96-well plate at 5×10^3 cells per well.
3-(4,5-Dimethylthiazol-2-yl)-2,5-diphenyltetrazolium bromide (MTT) assay (CellTiter 96 Assay, Promega) was employed to measure cell viability. After adding 15 μL of a dye per well and culturing for 2 hours, the cells were treated with 100 μL of a stop solution and absorbance was measured 24 hours later. The test compound was treated a day after plating. The test compound had been sequentially diluted at 12 concentrations from a 10 mM stock solution using sterilized dimethylsulfoxide (DMSO) and treated with an amount of 0.5 μL. Absorbance at 590 nm was recorded using EnVision2103, and GI50 value was calculated using GraphPad Prism 4.0 software.
The inhibitory activity against proliferation of the A375P cells of some typical compounds according to the present invention is given in Table 2.

The next series concerns A375 melanoma cells. As to conditions: read-out: proliferation of A375 melanoma cells IC50; cited from earlier work.
For series [1] the following is noted: 600 mg twice a day, clinical; cited from earlier work.

Chain of B-Raf-V600E kinase (P15056 whole entry V600E): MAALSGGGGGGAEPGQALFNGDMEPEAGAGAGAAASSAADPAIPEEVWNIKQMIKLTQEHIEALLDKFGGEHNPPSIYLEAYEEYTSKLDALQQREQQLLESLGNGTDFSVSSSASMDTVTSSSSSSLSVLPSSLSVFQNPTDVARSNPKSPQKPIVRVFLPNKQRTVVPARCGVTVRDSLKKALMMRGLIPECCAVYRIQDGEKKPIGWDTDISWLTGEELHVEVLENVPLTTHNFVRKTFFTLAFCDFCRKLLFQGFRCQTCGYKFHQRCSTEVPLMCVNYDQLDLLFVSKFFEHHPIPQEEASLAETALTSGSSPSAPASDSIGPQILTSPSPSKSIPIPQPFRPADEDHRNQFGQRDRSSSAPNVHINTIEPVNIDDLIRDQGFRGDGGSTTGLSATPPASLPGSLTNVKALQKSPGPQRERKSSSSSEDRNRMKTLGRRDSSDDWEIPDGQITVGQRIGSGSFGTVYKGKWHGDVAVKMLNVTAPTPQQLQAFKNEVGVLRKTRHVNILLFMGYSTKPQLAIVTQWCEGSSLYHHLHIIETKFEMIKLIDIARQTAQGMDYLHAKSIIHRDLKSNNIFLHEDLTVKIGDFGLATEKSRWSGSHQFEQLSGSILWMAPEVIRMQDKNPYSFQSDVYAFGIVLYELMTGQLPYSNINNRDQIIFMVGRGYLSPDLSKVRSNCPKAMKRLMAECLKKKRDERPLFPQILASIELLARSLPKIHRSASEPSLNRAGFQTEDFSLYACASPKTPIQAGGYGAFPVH

As to “4-(6-(4-methoxyphenyl)-1-(6-(methylamino)pyrimidin-4-yl)-1H-indol-3-yl)benzoate [Example 30]”, at B-Raf-V600E kinase, the IC50 was < 10 µM. Moreover, in the series with A375P cells, the GI50 was < 10 µM.

`O=[N+]([O-])c1cccc(-c2ccc3c(Br)cn(-c4cc(Cl)ncn4)c3c2)c1` [Example 9, 3-bromo-1-(6-chloropyrimidin-4-yl)-6-(3-nitrophenyl)-1H-indole]: in the series on A375P cells, the GI50 was < 10 µM. Still for that read-out and setting: to `COc1ccc(-c2cn(-c3ccncc3)c3cc(N4CCN(C(=O)OC(C)(C)C)CC4)ccc23)cc1` [Example 13, tert-butyl 4-(3-(4-methoxyphenyl)-1-(pyridin-4-yl)-1H-indol-6-yl)piperazine-1-carboxylate] belongs < 10 µM; to `COc1ccc(-c2cn(-c3ccncc3)c3cc(N4CCNCC4)ccc23)cc1` [Example 14, 3-(4-methoxyphenyl)-6-(piperazin-1-yl)-1-(pyridin-4-yl)-1H-indole], < 10 µM. Take `CC(=O)Nc1cccc(-c2ccc3c(-c4ccc(OCCN(C)C)cc4)cn(-c4ccncc4)c3c2)c1` [Example 25, N-(3-(3-(4-(2-(dimethylamino)ethoxy)phenyl)-1-(pyridin-4-yl)-1H-indol-6-yl)phenyl)acetamide]: the IC50 at B-Raf-V600E kinase was < 10 µM. Consider `CNc1cc(-n2cc(-c3cccc([N+](=O)[O-])c3)c3ccc(-c4ccc(OC)cc4)cc32)ncn1` [Example 26, 6-(6-(4-methoxyphenyl)-3-(3-nitrophenyl)-1H-indol-1-yl)-N-methylpyrimidin-4-amine], for which the GI50 in the series on A375P cells was < 10 µM.

With `CNc1cc(-n2cc(-c3cccc(N)c3)c3ccc(-c4ccc(OC)cc4)cc32)ncn1` [Example 27, 6-(3-(3-aminophenyl)-6-(4-methoxyphenyl)-1H-indol-1-yl)-N-methylpyrimidin-4-amine], at B-Raf-V600E kinase, the IC50 was < 10 µM. Further, the GI50 in the series on A375P cells was < 10 µM. On to `CNc1cc(-n2cc(-c3cccc(NC(C)=O)c3)c3ccc(-c4ccc(OC)cc4)cc32)ncn1` [Example 28, N-(3-(6-(4-methoxyphenyl)-1-(6-(methylamino)pyrimidin-4-yl)-1H-indol-3-yl)phenyl)acetamide], for which the GI50 in the series on A375P cells was < 10 µM. On the same count and under the same terms, to `CNc1cc(-n2cc(-c3ccc(C(=O)NCCN4CCOCC4)cc3)c3ccc(-c4ccc(OC)cc4)cc32)ncn1` [Example 31, 4-(6-(4-methoxyphenyl)-1-(6-(methylamino)pyrimidin-4-yl)-1H-indol-3-yl)-N-(2-morpholinoethyl)benzamide] belongs < 10 µM. On to `COc1ccc(-c2cn(-c3ccnc([S+](C)[O-])n3)c3cc(-c4cccc([N+](=O)[O-])c4)ccc23)cc1` (stereo not drawn) [Example 33, 3-(4-methoxyphenyl)-1-(2-(methylsulfinyl)pyrimidin-4-yl)-6-(3-nitrophenyl)-1H-indole], for which, in the series with A375P cells, the GI50 was < 10 µM. Still for that read-out and setting: to `CNc1cc(-n2cc(-c3ccc(OC)cc3)c3ccc(-c4cccc(NC(=O)Nc5ccc(Cl)c(C(F)(F)F)c5)c4)cc32)ncn1` [Example 37, 1-(4-chloro-3-(trifluoromethyl)phenyl)-3-(3-(3-(4-methoxyphenyl)-1-(6-(methylamino)pyrimidin-4-yl)-1H-indol-6-yl)phenyl)urea] belongs < 10 µM. With `CNc1cc(-n2cc(-c3ccc(OC)cc3)c3ccc(-c4cccc(NC(=O)Nc5ccccc5OC)c4)cc32)ncn1` [Example 39, 1-(2-methoxyphenyl)-3-(3-(3-(4-methoxyphenyl)-1-(6-(methylamino)pyrimidin-4-yl)-1H-indol-6-yl)phenyl)urea], the IC50 at B-Raf-V600E kinase was < 10 µM. The 50% growth inhibitory concentration (GI50) in the series with A375P cells was < 10 µM. On to `CNc1cc(-n2cc(-c3cccc(NC(=O)Nc4ccc(Cl)c(C(F)(F)F)c4)c3)c3ccc(-c4ccc(OC)cc4)cc32)ncn1` [Example 45, 1-(4-chloro-3-(trifluoromethyl)phenyl)-3-(3-(6-(4-methoxyphenyl)-1-(6-(methylamino)pyrimidin-4-yl)-1H-indol-3-yl)phenyl)urea], for which, in the series with A375P cells, the 50% growth inhibitory concentration (GI50) is < 10 µM. Take `CCCS(=O)(=O)Nc1ccc(F)c(C(=O)c2c[nH]c3ncc(Cl)cc23)c1F` [PLX4720]: in the series with A375 melanoma cells, the IC50 is 0.5 µM. `CNC(=O)c1cc(Oc2ccc(NC(=O)Nc3ccc(Cl)c(C(F)(F)F)c3)cc2)ccn1` [sorafenib, Sorafenib]: in series [1], the “skin toxicity on administration” value is “grade 3 skin toxicity”.

These data come from patent US8648089B2, “1,3,6-substituted indole derivatives having inhibitory activity for protein kinase” (Korea Institute of Science and Technology, priority 2009, dated 2014).
